{"source": "paper PMC6738921", "about": "“Polyamine biosynthesis in Xenopus laevis: the xlAZIN2/xlODC2 gene encodes a lysine/ornithine decarboxylase” (PLoS ONE, 2019)", "molecules": {"B1": {"name": "xlAZIN2 (xlODC2, xlLDC, xlLODC) (Xenopus laevis) (protein)", "chain": "MQGYIQESDFNLVEEGFLARDLMEEIINEVSQTEDRDAFFVADLGDVVRKHLRFLKALPRVKPFYAVKCNSSKGVVKILAELGAGFDCASKTEIELVQDVGVAPERIIYANPCKQISQIKYAAKNGVQMMTFDNEVELSKVSRSHPNARMVLRIATDDSKSSARLSVKFGAPLKSCRRLLEMAKNLSVDVIGVSFHVGSGCTDSKAYTQAISDARLVFEMASEFGYKMWLLDIGGGFPGTEDSKIRFEEIAGVINPALDMYFPESSDVQIIAEPGRYYVASAFSLAVNVIAKKEVEHSVSDDEENESSKSIMYYVNDGVYGSFNCLVFDHAHPKPILHKKPSPDQPLYTSSLWGPTCDGLDQIAERVQLPELHVGDWLLFENMGAYTIAASSNFNGFQQSPVHYAMPRAAWKAVQLLQRGLQQTEEKENVCTPMSCGWEISDSLCFTRTFAATSII"}}, "conditions_in_all_cases": "anti-Flag purified enzyme, less than 10% of activity recovered on purification, assay buffer: 0.1 mM pyridoxal phosphate, 1 mM dithiothreitol, 37°C", "key": {"xlODC1": {"molecular_target": "T1, xlODC1 (Xenopus laevis, UniProt P27120)", "T1 construct": "gene odc1-a", "T1 sequence (P27120 1-460)": "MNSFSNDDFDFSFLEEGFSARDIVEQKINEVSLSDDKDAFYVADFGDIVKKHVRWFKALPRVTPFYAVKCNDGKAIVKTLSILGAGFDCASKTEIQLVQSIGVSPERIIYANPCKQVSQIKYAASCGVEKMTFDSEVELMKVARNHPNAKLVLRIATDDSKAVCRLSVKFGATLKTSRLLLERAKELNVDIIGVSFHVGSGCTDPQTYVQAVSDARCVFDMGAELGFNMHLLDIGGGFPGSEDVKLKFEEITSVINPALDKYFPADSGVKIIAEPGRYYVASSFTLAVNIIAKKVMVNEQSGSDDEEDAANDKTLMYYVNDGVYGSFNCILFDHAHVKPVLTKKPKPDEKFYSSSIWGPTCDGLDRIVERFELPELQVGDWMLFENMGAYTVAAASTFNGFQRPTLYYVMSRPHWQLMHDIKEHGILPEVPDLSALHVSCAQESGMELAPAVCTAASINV", "test": "decarboxylase activity, Michaelis-Menten fit", "assay_type": "biochemical"}, "purified protein": {"substrate": "NCCC[C@H](N)C(=O)O", "test": "purified protein"}, "[1]": {"substrate": "NCCCC[C@H](N)C(=O)O", "test": "decarboxylase activity, Michaelis-Menten fit", "assay_type": "biochemical, Xenopus laevis"}}, "note": "Like-named read-outs stand apart in the source and are kept apart here.", "data": [{"molecule": "NCCC[C@H](N)C(=O)O", "note": "[L-ornithine]", "values": [{"measurement": "Km", "setting": "xlODC1; read-out: Km^Orn", "value": "0.103 ± 0.027", "unit": "mM"}]}, {"molecule": "NCCCC[C@H](N)C(=O)O", "note": "[L-lysine]", "values": [{"measurement": "Km", "setting": "xlODC1; unit inferred, mM from, read-out: Km^Lys", "value": "34.9 ± 6.1", "unit": "mM"}]}, {"molecule": "B1", "values": [{"measurement": "Km", "setting": "purified protein", "value": "3080 ± 810", "unit": "µM"}, {"measurement": "Km", "setting": "[1]", "value": "807 ± 102", "unit": "µM"}]}]}
